# PubChem BioAssay (NCI)
#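 Values below derive from 48-hour exposures of cells grown in 96-well plates, with endpoints linearly interpolated between the two concentrations bracketing the appropriate inhibition level. Definition used: TGI = concentration required for complete inhibition of growth.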
# How the values were obtained:
# Assay in all cases: DTP human tumour cell line panel, 48 h
# 786-0 renal = system: 786-0 renal
# SK-MEL-2 melanoma = system: SK-MEL-2 melanoma
# SNB-78 CNS = system: SNB-78 CNS
# SK-OV-3 ovarian = system: SK-OV-3 ovarian
# MALME-3M melanoma = system: MALME-3M melanoma
# M19-MEL melanoma = system: M19-MEL melanoma
# HOP-62 NSCLC = system: HOP-62 NSCLC
# HL-60(TB) leukemia = system: HL-60(TB) leukemia
# NCI-H522 lung = system: NCI-H522 lung
# SR leukemia = system: SR leukemia
# MOLT-4 leukemia = system: MOLT-4 leukemia
# ACHN renal = system: ACHN renal
# RPMI-8226 leukemia = system: RPMI-8226 leukemia
# NCI-H23 lung = system: NCI-H23 lung
# SK-MEL-28 melanoma = system: SK-MEL-28 melanoma
# UACC-62 melanoma = system: UACC-62 melanoma
# RXF-631 renal = system: RXF-631 renal
# CCRF-CEM leukemia = system: CCRF-CEM leukemia
# DMS 114 small cell lung = system: DMS 114 small cell lung
# SNB-75 CNS = system: SNB-75 CNS
# HOP-92 NSCLC = system: HOP-92 NSCLC
# COLO 205 colon = system: COLO 205 colon
# HCT-116 colon = system: HCT-116 colon
# UO-31 renal = system: UO-31 renal
# IGROV1 ovarian = system: IGROV1 ovarian
# DMS 273 small cell lung = system: DMS 273 small cell lung
# LXFL 529 NSCLC = system: LXFL 529 NSCLC
# SF-268 CNS = system: SF-268 CNS
# NCI-H460 lung = system: NCI-H460 lung
# K-562 leukemia = system: K-562 leukemia
# M14 melanoma = system: M14 melanoma
# OVCAR-4 ovarian = system: OVCAR-4 ovarian
# HCC-2998 colon = system: HCC-2998 colon
# DLD-1 colon = system: DLD-1 colon
# NCI-H226 lung = system: NCI-H226 lung
# CAKI-1 renal = system: CAKI-1 renal
# A498 renal = system: A498 renal
# OVCAR-3 ovarian = system: OVCAR-3 ovarian
# HOP-18 NSCLC = system: HOP-18 NSCLC
# OVCAR-5 ovarian = system: OVCAR-5 ovarian
# OVCAR-8 ovarian = system: OVCAR-8 ovarian
# KM20L2 colon = system: KM20L2 colon
# SN12C renal = system: SN12C renal
# SNB-19 CNS = system: SNB-19 CNS
# KM12 colon = system: KM12 colon
# SF-295 CNS = system: SF-295 CNS
# HT29 colon = system: HT29 colon
# UACC-257 melanoma = system: UACC-257 melanoma
# EKVX NSCLC = system: EKVX NSCLC
# SF-539 CNS = system: SF-539 CNS
# RXF 393 renal = system: RXF 393 renal
# XF 498 CNS = system: XF 498 CNS
# A549 NSCLC = system: A549 NSCLC
# SW-620 colon = system: SW-620 colon
# U251 CNS = system: U251 CNS
# TK-10 renal = system: TK-10 renal
# LOX IMVI melanoma = system: LOX IMVI melanoma
# HCT-15 colon = system: HCT-15 colon
# SK-MEL-5 melanoma = system: SK-MEL-5 melanoma
smiles,measurement,setting,value
COc1cc([C@H]2Oc3cc(O)c4c(=O)cc(-c5ccc(O)cc5)oc4c3O[C@@H]2CO)ccc1O,TGI,786-0 renal,29.3 µM
same,TGI,SK-MEL-2 melanoma,30.7 µM
same,TGI,SNB-78 CNS,98.1 µM
same,TGI,SK-OV-3 ovarian,36.6 µM
same,TGI,MALME-3M melanoma,33.3 µM
same,TGI,M19-MEL melanoma,36.8 µM
same,TGI,HOP-62 NSCLC,33.5 µM
same,TGI,HL-60(TB) leukemia,53 µM
same,TGI,NCI-H522 lung,18.6 µM
same,TGI,SR leukemia,47.8 µM
same,TGI,MOLT-4 leukemia,53.9 µM
same,TGI,ACHN renal,63.4 µM
same,TGI,RPMI-8226 leukemia,46 µM
same,TGI,NCI-H23 lung,31.1 µM
same,TGI,SK-MEL-28 melanoma,28 µM
same,TGI,UACC-62 melanoma,34.2 µM
same,TGI,RXF-631 renal,24.1 µM
same,TGI,CCRF-CEM leukemia,44.3 µM
same,TGI,DMS 114 small cell lung,40 µM
same,TGI,SNB-75 CNS,18.5 µM
same,TGI,HOP-92 NSCLC,60.7 µM
same,TGI,COLO 205 colon,31.7 µM
same,TGI,HCT-116 colon,26.4 µM
same,TGI,UO-31 renal,54.2 µM
same,TGI,IGROV1 ovarian,59.3 µM
same,TGI,DMS 273 small cell lung,31.8 µM
same,TGI,LXFL 529 NSCLC,29.2 µM
same,TGI,SF-268 CNS,5.79 µM
same,TGI,NCI-H460 lung,17.8 µM
same,TGI,K-562 leukemia,83.5 µM
same,TGI,M14 melanoma,34 µM
same,TGI,OVCAR-4 ovarian,63.2 µM
same,TGI,HCC-2998 colon,28.5 µM
same,TGI,DLD-1 colon,32.3 µM
same,TGI,NCI-H226 lung,39 µM
same,TGI,CAKI-1 renal,44.9 µM
same,TGI,A498 renal,35.2 µM
CSC(=N)N1N=C2c3ccccc3CC[C@@H]2[C@@H]1c1ccccc1,TGI,786-0 renal,25.6 µM
same,TGI,OVCAR-3 ovarian,36 µM
same,TGI,SK-MEL-2 melanoma,29.2 µM
same,TGI,HOP-18 NSCLC,47.8 µM
same,TGI,OVCAR-5 ovarian,34.7 µM
same,TGI,SK-OV-3 ovarian,41.6 µM
same,TGI,MALME-3M melanoma,25.9 µM
same,TGI,OVCAR-8 ovarian,29.1 µM
same,TGI,KM20L2 colon,25.6 µM
same,TGI,SN12C renal,31.2 µM
same,TGI,SNB-19 CNS,34 µM
same,TGI,M19-MEL melanoma,29.4 µM
same,TGI,HOP-62 NSCLC,32.8 µM
same,TGI,HL-60(TB) leukemia,34.6 µM
same,TGI,KM12 colon,27.9 µM
same,TGI,NCI-H522 lung,27.8 µM
same,TGI,SR leukemia,30.9 µM
same,TGI,MOLT-4 leukemia,35.8 µM
same,TGI,ACHN renal,50.2 µM
same,TGI,SF-295 CNS,27.9 µM
same,TGI,RPMI-8226 leukemia,35.5 µM
same,TGI,NCI-H23 lung,35.3 µM
same,TGI,SK-MEL-28 melanoma,29.8 µM
same,TGI,HT29 colon,23.6 µM
same,TGI,UACC-257 melanoma,35.3 µM
same,TGI,UACC-62 melanoma,41.7 µM
same,TGI,EKVX NSCLC,44.4 µM
same,TGI,CCRF-CEM leukemia,65 µM
same,TGI,SF-539 CNS,27.2 µM
same,TGI,DMS 114 small cell lung,28.7 µM
same,TGI,RXF 393 renal,27.7 µM
same,TGI,XF 498 CNS,30.6 µM
same,TGI,A549 NSCLC,34.2 µM
same,TGI,HOP-92 NSCLC,20.4 µM
same,TGI,SW-620 colon,29.9 µM
same,TGI,COLO 205 colon,26.6 µM
same,TGI,HCT-116 colon,17.7 µM
same,TGI,U251 CNS,31 µM
same,TGI,UO-31 renal,22.4 µM
same,TGI,IGROV1 ovarian,34.8 µM
same,TGI,DMS 273 small cell lung,28.5 µM
same,TGI,LXFL 529 NSCLC,24.2 µM
same,TGI,SF-268 CNS,49.6 µM
same,TGI,NCI-H460 lung,27.2 µM
same,TGI,K-562 leukemia,39.7 µM
same,TGI,M14 melanoma,27.4 µM
same,TGI,OVCAR-4 ovarian,49.3 µM
same,TGI,HCC-2998 colon,29.4 µM
same,TGI,DLD-1 colon,31.7 µM
same,TGI,NCI-H226 lung,22.6 µM
same,TGI,TK-10 renal,33.5 µM
same,TGI,LOX IMVI melanoma,28.5 µM
same,TGI,A498 renal,35.2 µM
same,TGI,HCT-15 colon,31 µM
COc1ccc(OC)c2cc(C3(C)SCCCS3)ccc12,TGI,786-0 renal,> 100 µM
same,TGI,OVCAR-3 ovarian,> 100 µM
same,TGI,SK-MEL-2 melanoma,> 100 µM
same,TGI,HOP-18 NSCLC,> 100 µM
same,TGI,SNB-78 CNS,> 100 µM
same,TGI,OVCAR-5 ovarian,> 100 µM
same,TGI,SK-OV-3 ovarian,> 100 µM
same,TGI,MALME-3M melanoma,> 100 µM
same,TGI,OVCAR-8 ovarian,> 100 µM
same,TGI,KM20L2 colon,> 100 µM
same,TGI,SN12C renal,> 100 µM
same,TGI,SNB-19 CNS,> 100 µM
same,TGI,M19-MEL melanoma,> 100 µM
same,TGI,SK-MEL-5 melanoma,> 100 µM
same,TGI,HOP-62 NSCLC,> 100 µM
same,TGI,HL-60(TB) leukemia,> 100 µM
same,TGI,KM12 colon,> 100 µM
same,TGI,MOLT-4 leukemia,> 100 µM
same,TGI,ACHN renal,> 100 µM
same,TGI,SF-295 CNS,> 100 µM
same,TGI,RPMI-8226 leukemia,> 100 µM
same,TGI,NCI-H23 lung,> 100 µM
same,TGI,SK-MEL-28 melanoma,> 100 µM
same,TGI,HT29 colon,> 100 µM
same,TGI,UACC-257 melanoma,> 100 µM
same,TGI,UACC-62 melanoma,> 100 µM
same,TGI,EKVX NSCLC,> 100 µM
same,TGI,CCRF-CEM leukemia,> 100 µM
same,TGI,SF-539 CNS,> 100 µM
same,TGI,DMS 114 small cell lung,> 100 µM
same,TGI,RXF 393 renal,77 µM
same,TGI,XF 498 CNS,> 100 µM
same,TGI,SNB-75 CNS,> 100 µM
same,TGI,A549 NSCLC,> 100 µM
same,TGI,SW-620 colon,> 100 µM
same,TGI,COLO 205 colon,> 100 µM
same,TGI,HCT-116 colon,> 100 µM
same,TGI,U251 CNS,> 100 µM
same,TGI,UO-31 renal,> 100 µM
same,TGI,IGROV1 ovarian,> 100 µM
same,TGI,DMS 273 small cell lung,> 100 µM
same,TGI,LXFL 529 NSCLC,> 100 µM
same,TGI,SF-268 CNS,> 100 µM
same,TGI,NCI-H460 lung,> 100 µM
same,TGI,K-562 leukemia,> 100 µM
same,TGI,M14 melanoma,> 100 µM
same,TGI,OVCAR-4 ovarian,> 100 µM
same,TGI,HCC-2998 colon,> 100 µM
same,TGI,DLD-1 colon,> 100 µM
same,TGI,CAKI-1 renal,> 100 µM
same,TGI,TK-10 renal,> 100 µM
same,TGI,LOX IMVI melanoma,> 100 µM
same,TGI,A498 renal,> 100 µM
same,TGI,HCT-15 colon,> 100 µM
NC(=O)c1cc(C2OC(CO)C(O)C2O)nn1-c1ccc([N+](=O)[O-])cc1 (centres undefined),TGI,OVCAR-3 ovarian,> 100 µM
same,TGI,SK-MEL-2 melanoma,> 100 µM
same,TGI,HOP-18 NSCLC,> 100 µM
same,TGI,SNB-78 CNS,> 100 µM
same,TGI,OVCAR-5 ovarian,> 100 µM
same,TGI,SK-OV-3 ovarian,> 100 µM
same,TGI,MALME-3M melanoma,> 100 µM
same,TGI,OVCAR-8 ovarian,> 100 µM
same,TGI,KM20L2 colon,> 100 µM
same,TGI,SN12C renal,> 100 µM
same,TGI,SNB-19 CNS,> 100 µM
same,TGI,SK-MEL-5 melanoma,> 100 µM
same,TGI,HOP-62 NSCLC,> 100 µM
same,TGI,HL-60(TB) leukemia,> 100 µM
same,TGI,KM12 colon,> 100 µM
same,TGI,MOLT-4 leukemia,> 100 µM
same,TGI,ACHN renal,> 100 µM
same,TGI,SF-295 CNS,> 100 µM
same,TGI,RPMI-8226 leukemia,> 100 µM
same,TGI,NCI-H23 lung,> 100 µM
same,TGI,SK-MEL-28 melanoma,> 100 µM
same,TGI,HT29 colon,> 100 µM
same,TGI,UACC-257 melanoma,> 100 µM
same,TGI,UACC-62 melanoma,> 100 µM
same,TGI,EKVX NSCLC,> 100 µM
same,TGI,CCRF-CEM leukemia,> 100 µM
same,TGI,SF-539 CNS,> 100 µM
same,TGI,DMS 114 small cell lung,> 100 µM
same,TGI,RXF 393 renal,> 100 µM
same,TGI,XF 498 CNS,> 100 µM
same,TGI,SNB-75 CNS,> 100 µM
same,TGI,A549 NSCLC,> 100 µM
same,TGI,HOP-92 NSCLC,> 100 µM
same,TGI,SW-620 colon,> 100 µM
same,TGI,COLO 205 colon,> 100 µM
same,TGI,HCT-116 colon,> 100 µM
same,TGI,U251 CNS,> 100 µM
same,TGI,UO-31 renal,> 100 µM
same,TGI,IGROV1 ovarian,> 100 µM
same,TGI,DMS 273 small cell lung,> 100 µM
same,TGI,LXFL 529 NSCLC,> 100 µM
same,TGI,SF-268 CNS,> 100 µM
same,TGI,NCI-H460 lung,> 100 µM
same,TGI,K-562 leukemia,> 100 µM
same,TGI,M14 melanoma,> 100 µM
same,TGI,OVCAR-4 ovarian,> 100 µM
same,TGI,HCC-2998 colon,> 100 µM
same,TGI,DLD-1 colon,> 100 µM
same,TGI,NCI-H226 lung,> 100 µM
same,TGI,CAKI-1 renal,> 100 µM
same,TGI,TK-10 renal,> 100 µM
same,TGI,LOX IMVI melanoma,> 100 µM
same,TGI,A498 renal,> 100 µM
same,TGI,HCT-15 colon,> 100 µM
